This passage reports melting point, inhibition and GI50 results from patent publication US10590129B2 (Incozen Therapeutics Pvt. Ltd., priority 2010, dated 2020).

Structures are written as SMILES. Counter-ions that a name gives are not always drawn.

One data set concerns MKN-45 cells. Kind of data set: Inhibition of MKN-45 proliferation (MTT). Type of data set: cell-based, human. To be noted: Homo sapiens, MKN-45, MKN-45 proliferation. The procedure: Inhibition of MKN-45 Proliferation:
Cell proliferation assays were carried out using the high Met expressing human gastric adenocarcinoma cell line, MKN-45, according to the following schedule:
Day 1: Cells were plated in 96-well plates in complete growth medium.
Day 2: Compounds at desired concentrations were added.
Day 5: Cell viability was determined using the 3-[4,5-dimethylthiazol-2-yl]-2,5-diphenyltetrazolium bromide (MTT) dye reduction test.

Broadly, the melting point is the temperature, or range, at which the solid turns liquid. For the compound `CN(C)CCCNC(=O)c1ccc(-c2ccc3nnn(Cc4ccc5ncccc5c4)c3n2)cc1F` (as salt: hydrochloride) [Ex 121, N-(3-(dimethylamino)propyl)-2-fluoro-4-(3-(quinolin-6-ylmethyl)-3H-[1,2,3]triazolo[4,5-b]pyridin-5-yl)benzamide dihydrochloride], the melting point lay within 137 to 140 °C.

For orientation: inhibition means the drop in the measured response relative to a control, in per cent. High values mean a strong effect, low ones a weak effect. Consider `COc1ccc(-c2ccc3nnn(Cc4ccc5ncccc5c4)c3n2)cc1` [Ex 1, 6-((5-(4-Methoxyphenyl)-3H-[1,2,3]triazolo[4,5-b]pyridin-3-yl)methyl)quinoline], for which the melting point lay within 144 to 146 °C. Further, the inhibition at 1 µM in the data set with MKN-45 cells lay within 25 to 50%. What is called GI50 is the concentration at which growth is held to half of that of the control. A low value points to more potent growth inhibition. `OCc1cccc(-c2ccc3nnn(Cc4ccc5ncccc5c4)c3n2)c1` [Ex 4, (3-(3-(quinolin-6-ylmethyl)-3H-[1,2,3]triazolo[4,5-b]pyridin-5-yl)phenyl)methanol] came in with a melting point of 191 to 193 °C. For the same compound, in the data set with MKN-45 cells, the 50% growth inhibitory concentration (GI50) was in the range of 150 to 500 nM. The compound `OCc1ccc(-c2ccc3nnn(Cc4ccc(F)cc4)c3n2)cc1` [Ex 11, (4-(3-(4-Fluorobenzyl)-3H-[1,2,3]triazolo[4,5-b]pyridin-5-yl)phenyl)methanol] showed a melting point of 210 to 213 °C. `O=C(O)c1ccc(-c2ccc3nnn(Cc4c(F)ccc(F)c4Cl)c3n2)cc1F` [Ex 18, 4-(3-(2-Chloro-3,6-difluorobenzyl)-3H-[1,2,3]triazolo[4,5-b]pyridin-5-yl)-2-fluorobenzoic acid] showed a melting point of 211 to 213 °C. This compound registered an inhibition at 1 µM in the data set on MKN-45 cells below 25%. In the same order, the values of `CNC(=O)c1ccc(-c2ccc3nnn(Cc4c(F)ccc(F)c4Cl)c3n2)cc1F` [Ex 19, 4-(3-(2-Chloro-3,6-difluorobenzyl)-3H-[1,2,3]triazolo[4,5-b]pyridin-5-yl)-2-fluoro-N-methylbenzamide] are 213 to 215 °C and below 25%. In the same order, the values of `FC(F)(F)Oc1cccc(-c2ccc3nnn(Cc4ccc5ncccc5c4)c3n2)c1` [Ex 23, 6-((5-(3-(trifluoromethoxy)phenyl)-3H-[1,2,3]triazolo[4,5-b]pyridin-3-yl)methyl)quinoline] are 140 to 142 °C and below 25%.

Take `Oc1cccc(-c2ccc3nnn(Cc4ccc5ncccc5c4)c3n2)c1` [Ex 24, 3-(3-(quinolin-6-ylmethyl)-3H-[1,2,3]triazolo[4,5-b]pyridin-5-yl)phenol]: the melting point lay within 255 to 257 °C. In addition, the inhibition at 1 µM in the data set on MKN-45 cells was below 25%. In the same order, the values of `FC(F)Oc1cccc(-c2ccc3nnn(Cc4ccc5ncccc5c4)c3n2)c1` [Ex 25, 6-((5-(3-(difluoromethoxy)phenyl)-3H-[1,2,3]triazolo[4,5-b]pyridin-3-yl)methyl) quinoline] are 122 to 125 °C and below 25%. `O=C(NC1CCCCC1)c1ccc(-c2ccc3nnn(Cc4ccc5ncccc5c4)c3n2)cc1F` [Ex 45, N-cyclohexyl-2-fluoro-4-(3-(quinolin-6-ylmethyl)-3H-[1,2,3]triazolo[4,5-b]pyridin-5-yl)benzamide] returned a melting point of 172 to 175 °C. As to `O=C(Nc1ccncc1)c1ccc(-c2ccc3nnn(Cc4ccc5ncccc5c4)c3n2)cc1F` [Ex 47, 2-Fluoro-N-(pyridin-4-yl)-4-(3-(quinolin-6-ylmethyl)-3H-[1,2,3]triazolo[4,5-b]pyridin-5-yl)benzamide], the melting point is 217 to 219 °C. In the data set with MKN-45 cells, this compound returned an inhibition at 0.1 µM below 25% and an inhibition at 1 µM of 50 to 75%.

Turning to `O=C(NCc1ccccc1)c1ccc(-c2ccc3nnn(Cc4ccc5ncccc5c4)c3n2)cc1F` [Ex 48, N-Benzyl-2-fluoro-4-(3-(quinolin-6-ylmethyl)-3H-[1,2,3]triazolo[4,5-b]pyridin-5-yl)benzamide], the melting point is 163 to 165 °C. For the same compound, in the data set with MKN-45 cells, the inhibition at 0.1 µM is below 25% and the inhibition at 1 µM was 75 to 100%. In the same order, the values of `CN(C)C(=O)c1ccc(-c2ccc3nnn(Cc4ccc5ncccc5c4)c3n2)cc1F` [Ex 49, 2-Fluoro-N,N-dimethyl-4-(3-(quinolin-6-ylmethyl)-3H-[1,2,3]triazolo[4,5-b]pyridin-5-yl)benzamide] are 163 to 165 °C, below 25% and 25 to 50%. In the same order, the values of `O=C(O)CNC(=O)c1ccc(-c2ccc3nnn(Cc4ccc5ncccc5c4)c3n2)cc1F` [Ex 51, 2-(2-Fluoro-4-(3-(quinolin-6-ylmethyl)-3H-[1,2,3]triazolo[4,5-b]pyridin-5-yl)benzamido)acetic acid] are 252 to 254 °C, below 25% and below 25%.

Take `Fc1cccc(-c2ccc3nnn(Cc4ccc5ncccc5c4)c3n2)c1` [Ex 56, 6-((5-(3-Fluorophenyl)-3H-[1,2,3]triazolo[4,5-b]pyridin-3-yl)methyl)quinoline]: the melting point was in the range of 145 to 147 °C. In the data set with MKN-45 cells, this compound returned an inhibition at 0.1 µM below 25% and an inhibition at 1 µM below 25%. `CON(C)C(=O)c1ccc(-c2ccc3nnn(Cc4ccc5ncccc5c4)c3n2)cc1F.Cl` [Ex 59, 2-Fluoro-N-methoxy-N-methyl-4-(3-(quinolin-6-ylmethyl)-3H-[1,2,3]triazolo[4,5-b]pyridin-5-yl)benzamide hydrochloride] showed a melting point of 201 to 202 °C. In the data set with MKN-45 cells, this compound yielded an inhibition at 0.1 µM below 25% and an inhibition at 1 µM of 50 to 75%. In the same order, the values of `CC(C)(C)NC(=O)c1ccc(-c2ccc3nnn(Cc4ccc5ncccc5c4)c3n2)cc1F` [Ex 60, N-tert-Butyl-2-fluoro-4-(3-(quinolin-6-ylmethyl)-3H-[1,2,3]triazolo[4,5-b]pyridin-5-yl) benzamide] are 210 to 212 °C, below 25% and below 25%. `NCCCNC(=O)c1ccc(-c2ccc3nnn(Cc4ccc5ncccc5c4)c3n2)cc1F` [Ex 112, N-(3-Aminopropyl)-2-fluoro-4-(3-(quinolin-6-ylmethyl)-3H-[1,2,3]triazolo[4,5-b]pyridin-5-yl)benzamide] showed a melting point of 292 to 294 °C. On the same count and under the same terms, with `O=C(NC1CC1)c1ccc(-c2ccc3nnn(Cc4ccc5ncccc5c4)c3n2)cc1Cl` [Ex 113, 2-Chloro-N-cyclopropyl-4-(3-(quinolin-6-ylmethyl)-3H-[1,2,3]triazolo[4,5-b]pyridin-5-yl)benzamide] the figure was 197 to 199 °C. Same read-out and setting: then `CCCn1cc(-c2ccc3nnn(Cc4ccc5ncccc5c4)c3n2)cn1` [Ex 153, 6-((5-(1-Propyl-1H-pyrazol-4-yl)-3H-[1,2,3]triazolo[4,5-b]pyridin-3-yl)methyl)quinoline], with 128 to 130 °C. As for `O=C(O)Cn1cc(-c2ccc3nnn(Cc4ccc5ncccc5c4)c3n2)cn1` [Ex 155, 2-(4-(3-(Quinolin-6-ylmethyl)-3H-[1,2,3]triazolo[4,5-b]pyridin-5-yl)-1H-pyrazol-1-yl)acetic acid], the melting point is above 270 °C. On the same count and under the same terms, then `O[C@@H]1CCN(c2ccc3nnn(Cc4ccc5ncccc5c4)c3n2)C1` [Ex 158, (R)-1-(3-(Quinolin-6-ylmethyl)-3H-[1,2,3]triazolo[4,5-b]pyridin-5-yl)pyrrolidin-3-ol], with 167 to 169 °C.

Compound `OCCn1cc(-c2ccc3nnn(Cc4ccc(F)cc4)c3n2)cn1` [Ex 161, 2-(4-(3-(4-Fluorobenzyl)-3H-[1,2,3]triazolo[4,5-b]pyridin-5-yl)-1H-pyrazol-1-yl)ethanol] returned a melting point of 204 to 206 °C. `OCCn1cc(-c2ccc3nnn(Cc4c(F)ccc(F)c4Cl)c3n2)cn1` [Ex 165, 2-(4-(3-(2-Chloro-3,6-difluorobenzyl)-3H-[1,2,3]triazolo[4,5-b]pyridin-5-yl)-1H-pyrazol-1-yl)ethanol] came in with a melting point of 143 to 145 °C.

In the data set with MKN-45 cells, `NC(=O)c1ccc(-c2ccc3ncn(Cc4ccc5ncccc5c4)c3n2)cc1Cl` [Ex 215, 2-Chloro-4-(3-(quinolin-6-ylmethyl)-3H-imidazo[4,5-b]pyridin-5-yl)benzamide] displayed an inhibition at 0.1 µM below 25%. `CC(=NO)c1ccc2nnn(Cc3ccc4ncccc4c3)c2n1` [Ex 216, 1-(3-(Quinolin-6-ylmethyl)-3H-[1,2,3]triazolo[4,5-b]pyridin-5-yl)ethanone oxime] showed an inhibition at 0.1 µM in the data set with MKN-45 cells below 25%. Same read-out and setting: then `CON=C(C)c1ccc2nnn(Cc3ccc4ncccc4c3)c2n1` [Ex 217, 1-(3-(Quinolin-6-ylmethyl)-3H-[1,2,3]triazolo[4,5-b]pyridin-5-yl)ethanone O-methyl oxime], with 50 to 75%. In the data set with MKN-45 cells, `CC(=O)NN=C(C)c1ccc2nnn(Cc3ccc4ncccc4c3)c2n1` [Ex 218, N′-(1-(3-(Quinolin-6-ylmethyl)-3H-[1,2,3]triazolo[4,5-b]pyridin-5-yl)ethylidene) acetohydrazide] registered an inhibition at 0.1 µM below 25%.

With `CN1CCN(c2ccc3nnn(Cc4ccc5ncccc5c4)c3n2)CC1` [Ex 219, 6-((5-(4-Methylpiperazin-1-yl)-3H-[1,2,3]triazolo[4,5-b]pyridin-3-yl)methyl)quinoline], in the data set on MKN-45 cells, the inhibition at 0.1 µM was below 25%. In turn, `NC(=O)c1ccc(-c2ccc3nnn(Cc4ccc5ncccc5c4)c3n2)cc1C(F)(F)F` [Ex 223, 4-(3-(Quinolin-6-ylmethyl)-3H-[1,2,3]triazolo[4,5-b]pyridin-5-yl)-2-(trifluoromethyl)benzamide] returned an inhibition at 0.1 µM in the data set with MKN-45 cells of 75 to 100%. On the same count and under the same terms, then `NC(=O)c1ccc(-c2ccc3nnn(Cc4ccc5c(ccc[n+]5[O-])c4)c3n2)cc1Cl` [Ex 224, 6-((5-(4-carbamoyl-3-chlorophenyl)-3H-[1,2,3]triazolo[4,5-b]pyridin-3-yl)methyl)quinoline 1-oxide], with 25 to 50%. In the data set on MKN-45 cells, `CCNC(=O)c1ccc(-c2ccc3nnn(Cc4ccc5ncccc5c4)c3n2)cc1Cl` [Ex 225, 2-chloro-N-ethyl-4-(3-(quinolin-6-ylmethyl)-3H-[1,2,3]triazolo[4,5-b]pyridin-5-yl)benzamide hydrochloride] showed an inhibition at 0.1 µM of 75 to 100% and an inhibition at 1 µM of 50 to 75%.
